The values below are quoted from earlier work in patent US6998494B2, “Preparation of trans-fused 3,3a,8,12b-tetrahydro-2h-dibenzo[3,4:6,7]cyclohepta[1,2-b]furan derivatives” (Janssen Pharmaceutica N.V., priority 2001, dated 2006).

For this series the following is noted: dose of 300 mg/kg.

Regarding `CNCC1CC2c3ccccc3Cc3ccccc3C2O1.O=C(O)C(=O)O` (racemic) [(±)-3,3a,8,12b-tetrahydro-N-methyl-2H-dibenzo[3,4:6,7]-cyclohepta[1,2-b]furan-2-methanamine oxalic acid], the “activity as an antidepressant” value is “inactive”.
